{"source": "paper PMC12406204", "about": "(Journal of Medicinal Chemistry, 2025)", "tested_on": "mouse primary neurons", "test": "Neuroprotection in primary cultures exposed to LPS + IFN-γ", "type": "cell-based", "experimental": "To unequivocally confirm that the observed neuroprotective effect was indeed mediated by CB2R activation, an additional experiment was conducted (Figure C).\nTo prepare primary neurons, brains from fetuses of pregnant CD1 mice were removed (gestational age: 19 days). Neurons were isolated as described in Hradsky et al. Briefly, after removal of the meninges, samples were dissected and digested with 0.25% trypsin (20 min at 37 °C). The effect of trypsin was stopped by adding an equal volume of culture medium (supplemented DMEM). A single-cell suspension was obtained by repeated pipetting followed by passage through a 100 μm-pore mesh. Pelleted (7 min, 200g) cells were resuspended in 2 mL of supplemented DMEM and seeded at a density of 3.5 × 10^5 cells/mL in 6-well plates. […]\nPrimary cultures of striatal neurons were treated for 24 h with selected SCRAs (100 nM). […] After ∼3 min of incubation at room temperature, 10 μL of the mixture were sampled in a Neubauer chamber and counted with a Countess II FL (Life Technologies, California, CA, USA). The unstained (viable) and stained (nonviable) cells were counted separately, and the percentage of viability was calculated as total number of viable cells/total number of cells × 100."}
{"smiles": "NC(=O)[C@@H]1CCCCN1C(=O)c1nn(Cc2ccc(F)cc2)c2ccccc12", "note": "[18o]", "values": [{"measurement": "cell viability after LPS + IFN-γ with CB2R antagonist SR144528", "setting": "compound alongside SR144528", "value": "~60", "unit": "%"}, {"measurement": "cell viability after LPS + IFN-γ", "setting": "primary cultures exposed to LPS + IFN-γ", "value": "~100", "unit": "%"}]}
